Laboratory results from ChEMBL document CHEMBL2016523, “Discovery of an orally-bioavailable CC Chemokine Receptor 2 antagonist derived from an acyclic diaminoalcohol backbone” (Bioorg Med Chem Lett, 2012).
pIC50: −log10 of the molar value. The source made the active and inactive calls. The rule behind the calls is not given here.

Legend:
[1] = molecular target: T1, C-C chemokine receptor type 2 (Homo sapiens, UniProt P41597); experiment: Displacement of [125-I]MCP1 from CCR2 on human PBMC
Target sequence in this assay (P41597 whole entry): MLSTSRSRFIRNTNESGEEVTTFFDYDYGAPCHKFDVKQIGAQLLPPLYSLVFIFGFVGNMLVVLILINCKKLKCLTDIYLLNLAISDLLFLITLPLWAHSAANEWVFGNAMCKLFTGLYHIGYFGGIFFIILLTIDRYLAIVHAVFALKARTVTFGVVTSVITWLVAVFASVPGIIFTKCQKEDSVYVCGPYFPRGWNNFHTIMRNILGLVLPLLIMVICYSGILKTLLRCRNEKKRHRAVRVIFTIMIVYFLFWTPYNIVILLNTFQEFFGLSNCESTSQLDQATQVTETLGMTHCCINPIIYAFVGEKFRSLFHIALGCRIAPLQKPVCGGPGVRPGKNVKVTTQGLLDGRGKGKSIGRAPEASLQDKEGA

[2] = molecular target: C-C chemokine receptor type 2 (Mus musculus) (UniProt P51683); experiment: Binding affinity to mouse CCR2
Chain of C-C chemokine receptor type 2 (Mus musculus) (P51683 whole entry, looked up): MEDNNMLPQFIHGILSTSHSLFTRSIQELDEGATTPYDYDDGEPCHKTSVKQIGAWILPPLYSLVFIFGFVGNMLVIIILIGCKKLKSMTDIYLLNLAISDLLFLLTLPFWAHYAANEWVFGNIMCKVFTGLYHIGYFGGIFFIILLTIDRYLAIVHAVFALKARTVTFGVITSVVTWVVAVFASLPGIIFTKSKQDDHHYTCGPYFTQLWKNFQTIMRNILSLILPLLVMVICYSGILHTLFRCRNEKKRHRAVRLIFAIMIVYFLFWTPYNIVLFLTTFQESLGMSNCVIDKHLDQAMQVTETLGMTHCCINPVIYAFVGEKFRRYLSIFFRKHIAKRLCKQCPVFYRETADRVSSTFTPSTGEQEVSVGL

Mus musculus [3] = species on record: Mus musculus; experiment: Selectivity for mouse CCR2 over mouse CCR2
[4] = molecular target: C-C chemokine receptor type 5 (Mus musculus, UniProt P51682); experiment: Binding affinity to mouse CCR5
Chain of C-C chemokine receptor type 5 (P51682 whole entry): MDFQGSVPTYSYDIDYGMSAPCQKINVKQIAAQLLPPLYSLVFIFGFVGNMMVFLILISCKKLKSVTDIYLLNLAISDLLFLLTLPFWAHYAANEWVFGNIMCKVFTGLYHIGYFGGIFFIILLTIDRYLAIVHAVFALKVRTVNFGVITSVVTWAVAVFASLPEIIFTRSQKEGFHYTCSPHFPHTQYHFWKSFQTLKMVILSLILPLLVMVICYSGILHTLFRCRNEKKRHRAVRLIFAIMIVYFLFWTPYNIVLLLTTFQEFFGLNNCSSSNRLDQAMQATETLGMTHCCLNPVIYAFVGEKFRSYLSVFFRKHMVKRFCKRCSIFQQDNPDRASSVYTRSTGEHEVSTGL

[5] = molecular target: C-C chemokine receptor type 2 (Mus musculus) (UniProt P51683); experiment: Antagonist activity at CCR2 in mouse monocytes assessed as inhibition of MCP1-induced cAMP depression; format: functional, cell-based
[6] = Clearance in mouse; format: ADME, organism-based; settings: in vivo
[7] = Oral bioavailability in mouse; format: ADME, organism-based; settings: in vivo
[8] = molecular target: C-C chemokine receptor type 2 (Mus musculus) (UniProt P51683); experiment: Antagonist activity at CCR2 in mouse monocytes assessed as inhibition of MCP1-induced calcium flux; format: functional, cell-based
Mus musculus [9] = species on record: Mus musculus; experiment: Selectivity for mouse CCR2 over mouse CCR1
[10] = molecular target: T1, C-C chemokine receptor type 2; experiment: Displacement of [125-I]MCP1 from CCR2 on human PBMC at 1 uM
Target sequence in this assay (P41597 whole entry, looked up): as the sequence (P41597 whole entry) above

pIC50 [1] | SMILES | further results
7.57 | CCCC(O)(CCC)[C@H](CNCc1ccc(C)cc1C)NC(=O)CNC(=O)c1cc(C(F)(F)F)ccc1N | 
6.62 | CCC[C@H](O)[C@H](CNCc1ccc(C)cc1C)NC(=O)CC(=O)Nc1cc(C(F)(F)F)ccc1NC(=O)OC(C)(C)C | 
7.70 | CCCNc1cc(NC(=O)CC(=O)N[C@@H](CNCc2ccc(C)cc2C)[C@@H](O)CCC)cc(C(F)(F)F)c1 | 
8.28 | CCC[C@H](O)[C@H](CNCc1ccc(C)cc1C)NC(=O)CNC(=O)c1cc(C(F)(F)F)ccc1NC(C)C | 
7.00 | Cc1ccc(CNC[C@H](NC(=O)CNC(=O)c2cccc(C(F)(F)F)c2)[C@@H](O)c2ccccc2)c(C)c1 | 
7.00 | Cc1ccc(CNC[C@H](NC(=O)CNC(=O)c2cccc(C(F)(F)F)c2)[C@H](O)C(C)C)c(C)c1 | 
 | Cc1ccc(CNC[C@H](NC(=O)CNC(=O)c2cccc(C(F)(F)F)c2)[C@H](O)CC(C)C)c(C)c1 | inhibition [2]: inactive
8.44 | CCC[C@H](O)[C@H](CNCc1ccc(C)cc1C)NC(=O)CNC(=O)c1cc(C(F)(F)F)ccc1NC(=O)NCC | Selectivity ratio (Mus musculus [3]): > 1000; pIC50 [4]: 7.07; Activity [5]: Active; clearance [6]: 85 mL/min/kg; bioavailability [7]: 29%; inhibition [2]: Active; Activity [8]: Active; Selectivity ratio (Mus musculus [9]): > 1000
8.13 | CCC[C@H](O)[C@H](CNCc1ccc(C)cc1C)NC(=O)CNC(=O)c1cc(C(F)(F)F)ccc1NC(C)(C)C | 
7.31 | CCC[C@H](O)[C@H](CNCc1ccc(C)cc1C)NC(=O)Cc1nc2c(C(F)(F)F)cccc2[nH]1 | 
7.37 | CCC[C@H](O)[C@H](CNCc1ccc(C)cc1C)NC(=O)CC(=O)Nc1cc(C(F)(F)F)ccc1N | 
7.72 | Cc1ccc(CNC[C@H](NC(=O)CNC(=O)c2cccc(C(F)(F)F)c2)[C@@H](O)CC(C)(C)C)c(C)c1 | 
6.36 | CCC[C@H](O)[C@H](CN(C)Cc1ccc(C)cc1C)NC(=O)CNC(=O)c1cc(C(F)(F)F)ccc1NC(=O)NC(C)C | 
8.15 | CCC[C@H](O)[C@H](CNCc1ccc(C)cc1C)NC(=O)CC(=O)Nc1cc(NC)cc(C(F)(F)F)c1 | 
5.91 | CCC[C@H](O)[C@H](CNCc1ccc(C)cc1C)N1CC[C@H](NC(=O)c2cc(N)cc(C(F)(F)F)c2)C1=O | 
6.80 | Cc1ccc(CNC[C@H](NC(=O)CNC(=O)c2cc(C(F)(F)F)ccc2N)C(C)(C)O)c(C)c1 | 
 | Cc1ccc(CNC[C@H](NC(=O)CNC(=O)c2cccc(C(F)(F)F)c2)[C@@H](O)CC(C)C)c(C)c1 | inhibition [2]: inactive
6.05 | CCC[C@H](O)[C@H](CNCc1ccc(C)cc1C)N1CC[C@H](NC(=O)c2cc(C(F)(F)F)ccc2N)C1=O | 
8.30 | CCCC[C@H](O)[C@H](CNCc1ccc(C)cc1C)NC(=O)CNC(=O)c1cccc(C(F)(F)F)c1 | 
6.22 | Cc1ccc(CNC[C@H](NC(=O)CNC(=O)c2cccc(C(F)(F)F)c2)[C@H](O)CC(C)(C)C)c(C)c1 | 
6.41 | CC[C@@H](O)[C@H](CNCc1ccc(C)cc1C)NC(=O)CNC(=O)c1cccc(C(F)(F)F)c1 | 
8.35 | CCC[C@H](O)[C@H](CNCc1ccc(C)cc1C)NC(=O)CC(=O)Nc1cc(NCC)cc(C(F)(F)F)c1 | 
6.66 | CCC[C@H](O)[C@H](CNCc1ccc(C)cc1C)NC(=O)CC(=O)Nc1cc(C(F)(F)F)ccc1OC | 
6.15 | CCC[C@H](O)[C@H](CNCc1ccc(C)cc1C)NC(=O)CC(=O)Nc1cc(Br)cc(C(F)(F)F)c1 | 
8.60 | CCC[C@H](O)[C@H](CNCc1ccc(C)cc1C)NC(=O)CNC(=O)c1cc(C(F)(F)F)ccc1NC(=O)N1CCNCC1 | 
7.06 | Cc1ccc(CNC[C@H](NC(=O)CNC(=O)c2cc(C(F)(F)F)ccc2N)C2(O)CCCC2)c(C)c1 | 
8.47 | CCC[C@H](O)[C@H](CNCc1ccc(C)cc1C)NC(=O)CNC(=O)c1cc(C(F)(F)F)ccc1N | inhibition [2]: Active
8.24 | CCC[C@H](O)[C@H](CNCc1ccc(C)cc1C)NC(=O)CNC(=O)c1cc(C(F)(F)F)ccc1NC(=O)N1CCCC1 | 

pIC50 [1] | SMILES | further results
7.96 | CCC[C@H](OC)[C@H](CNCc1ccc(C)cc1C)NC(=O)CNC(=O)c1cc(C(F)(F)F)ccc1N | 
8.00 | CCC[C@H](O)[C@H](CNCc1ccc(C)cc1C)NC(=O)CNc1n[nH]c2ccc(C(F)(F)F)cc12 | 
4.55 | CCC[C@H](O)[C@H](CNCc1ccc(C)cc1C)N1CC[C@@H](NC(=O)c2cc(C(F)(F)F)ccc2NC(=O)OC(C)(C)C)C1=O | 
7.40 | CCC[C@H](O)[C@H](CNCc1ccc(C)cc1C)NC(=O)CC(=O)Nc1cc(NC(=O)NCC)cc(C(F)(F)F)c1 | 
8.17 | CCC[C@H](O)[C@H](CNCc1ccc(C)cc1C)NC(=O)CNC(=O)c1cc(N)cc(C(F)(F)F)c1 | 
8.42 | CCC[C@H](O)[C@H](CNCc1ccc(C)cc1C)NC(=O)CNC(=O)c1cc(C(F)(F)F)ccc1NC(=O)N1CCOCC1 | 
7.62 | CCC[C@H](O)[C@H](CNCc1ccc(C)cc1C)NC(=O)CC(=O)Nc1cc(OC)cc(C(F)(F)F)c1 | 
8.68 | CCC[C@H](O)[C@H](CNCc1ccc(C)cc1C)NC(=O)CNC(=O)c1cc(C(F)(F)F)ccc1NC(=O)N1CCC1 | 
8.15 | CCC[C@@H](O)[C@H](CNCc1ccc(C)cc1C)NC(=O)CNC(=O)c1cc(C(F)(F)F)ccc1N | inhibition [2]: inactive
6.74 | CCCC[C@@H](O)[C@H](CNCc1ccc(C)cc1C)NC(=O)CNC(=O)c1cccc(C(F)(F)F)c1 | 
7.39 | CCC(O)(CC)[C@H](CNCc1ccc(C)cc1C)NC(=O)CNC(=O)c1cc(C(F)(F)F)ccc1N | 
6.80 | CCC[C@H](O)[C@H](CNCc1ccc(C)cc1C)NC(=O)CC(=O)Nc1cc(C(=O)NCC)cc(C(F)(F)F)c1 | 
8.40 | CCC[C@H](O)[C@H](CNCc1ccc(C)cc1C)NC(=O)CNC(=O)c1cc(C(F)(F)F)ccc1NC(=O)OC(C)(C)C | inhibition [2]: Active
8.03 | CCC[C@H](O)[C@H](CNCc1ccc(C)cc1C)NC(=O)CNC(=O)c1cc(C(F)(F)F)ccc1NCc1ccccc1 | 
7.55 | CCC[C@H](O)[C@H](CNCc1ccc(C)cc1C)NC(=O)CC(=O)Nc1cccc(C(F)(F)F)c1 | 
 | CCC[C@H](O)[C@H](CNCc1ccc(C)cc1C)NC(=O)CNC(=O)c1cccc(C(F)(F)F)c1 | inhibition [2]: Active
5.77 | CCC[C@H](O)[C@H](CN(Cc1ccc(C)cc1C)C(C)C)NC(=O)CNC(=O)c1cc(C(F)(F)F)ccc1NC(=O)NC(C)C | 
5.98 | CCC[C@H](O)[C@H](CNCc1ccc(C)cc1C)N1CC[C@H](NC(=O)c2cc(C(F)(F)F)ccc2NC(=O)OC(C)(C)C)C1=O | 
8.42 | CCC[C@H](O)[C@H](CNCc1ccc(C)cc1C)NC(=O)CC(=O)Nc1cc(N)cc(C(F)(F)F)c1 | 
7.77 | CC[C@H](O)[C@H](CNCc1ccc(C)cc1C)NC(=O)CNC(=O)c1cc(C(F)(F)F)ccc1N | 
 | CCC[C@H](O)[C@H](CNCc1ccc(C)cc1C)NC(=O)Cc1nc2ccc(C(F)(F)F)cc2[nH]1 | inhibition (INH) [10]: 6%
6.16 | CCC[C@H](O)[C@H](CNCc1ccc(C)cc1C)NC(=O)CC(=O)Nc1cc(C(F)(F)F)cc(C(F)(F)F)c1 | 
6.47 | CCC[C@H](O)[C@H](CNCc1ccc(C)cc1C)NC(=O)CC(=O)Nc1cc(NC(=O)OC(C)(C)C)cc(C(F)(F)F)c1 | 
8.17 | CCC[C@H](O)[C@H](CNCc1ccc(C)cc1C)NC(=O)CNC(=O)c1cc(C(F)(F)F)ccc1NC(=O)NC | 
7.19 | Cc1ccc(CNC[C@H](NC(=O)CNC(=O)c2cccc(C(F)(F)F)c2)[C@@H](O)C(C)C)c(C)c1 | 
< 6.00 | Cc1ccc(CNC[C@H](NC(=O)CNC(=O)c2cccc(C(F)(F)F)c2)[C@H](O)c2ccccc2)c(C)c1 | 
7.19 | CC[C@H](O)[C@H](CNCc1ccc(C)cc1C)NC(=O)CNC(=O)c1cccc(C(F)(F)F)c1 | 
